Like-named read-outs stand apart in the source and are kept apart here.
Legend:
zebrafish brain = test: HT-BAMing whole-brain activity mapping (T-score BAM) by calcium imaging of awake larvae; assay type: in vivo; conditions: for change in brain neural activity (T-score BAM pattern): 10 μM dose, 15-minute perfusion, five larvae per compound
Procedure: The transgenic zebrafish line elav13:GCaMP5G may be maintained in aquaria under standard laboratory conditions (at 28° C. under a cycle of 14 h light, 10 h dark). Larvae of 6-8 dpf were used in the HT-BAMing experiments.
For example, the imaging process may be performed on a fully automated inverted fluorescent microscope (Olympus IX81) equipped with a cooled sCMOS camera (Neo, ANDOR) with a 10× (NA, 0.4) objective. Micro-manager 1.4 may be installed to control the microscope. For high-resolution, confocal imaging and Leica SP8 microscope with a resonant scanner may be used.
Furthermore, a drug perfusion time may be set in which the two syringes may contain different fluid or solutions such that the changes induced by the drug may be recorded. With reference to FIGS. 8 and 9, to generate the functional BAM of a larva in response to a 15-minute period of chemical perfusion, or “treatment”, each larva was imaged over a 10-minute period before and after treatment.
In the experiments performed by the inventors, all drugs or compounds were dissolved in DMSO as a vehicle as ˜10 mM stock solutions. Treatment of the larvae was performed simply by switching the perfusion solution after immobilizing larvae in the microfluidic chip as shown in FIG. 8. Final concentrations of compounds tested in the primary screen were […].
In one example embodiment, the transformation module 106 is arrange to construct the brain activity maps 110 based on counting neural spikes representing changes of brain activity as detected on the images obtained. With reference to FIGS. 1 and 9, readings from multiple focal planes along the Z-axis (ventral direction) were acquired, and accumulated spike counts were derived from the calcium fluctuations of each Z-plane with a lateral resolution of 15.21 μm^2. The difference in spike-counts between the post- and pre-treatment periods was calculated and projected (by summing up along the Z-axis) to a two-dimensional surface to construct a BAM that reflects changes in brain activity and physiology of an individual larva in response to treatment.
With reference also to FIG. 10, a heat map may be used to intuitively display the activation level of the brain. To map brain activity, every collected frame from calcium imaging may be first meshed into small ROIs, each with a size of 15.21 μm^2. The time series of fluorescence signal in each ROI may then be filtered by a high pass filter to remove the interference from illumination fluctuations. The resulting trace may be used to calculate and visualize the spiking activities. For spike counting, a threshold may be applied to detect spikes from neural activity.
In the experiment, for each compound, the spike count data from five independent zebrafish larvae over a 10-minute period before and a 15-minute period after compound treatment. Before comparison across different samples, all the images were first resized and aligned to a uniform zebrafish brain template with the following process: for each raw image, the dark background was first removed to extract the fluorescent brain region, which was then mapped to the standard template via specific transformative adjustments (e.g. rotation, translation) using the brain center-line as a registration landmark and such that the symmetry with respect to the center-line was maximized in the resulted image. Lastly, the fish eye region was further removed by taking the regions within the template for downstream analysis.
A brain activity map (BAM) A=[aij] was then derived by taking the change (increase or decrease) of spike counts in each ROI before (t0) and after chemical treatment (t1), and summed across multiple layers along the Z-axis:
For each compound, BAMs from five individual larvae were acquired following treatment with a 10 μM dose.

[1] = tested on: pentylenetetrazole (PTZ) induced zebrafish seizure model; conditions: for seizure count over 15 minutes after PTZ: 5 mM PTZ after 4 hour pre-incubation with compound, n=12, vs DMSO control; for concentration at which seizures were reduced: 5 mM PTZ after 4 hour pre-incubation
Procedure: In these experiments, with reference to FIG. 38, following a four-hour drug incubation period, zebrafish larvae were pre-monitored for normal movements/swimming behavior for 17 minutes. […] At the 17-minute mark, the larvae were treated with PTZ to a final concentration of 5 mM, and the number of seizures per larva and the average number of seizures at each concentration were quantified for 15 minutes following PTZ exposure.
(§1) The experimental protocol uses a 96-well plate, with one zebrafish larva (5 days post-fertilization) in 90 μL of fish water in each well. 10 μL of a 10× solution of compound in 10% DMSO was added to each well to achieve the final concentration shown in the data, and for a final concentration of 1% DMSO. […] The larvae were pre-treated with compound for four hours, followed by a two minute dark stimulation to ensure fish were not sedated, followed by a 15 minutes period of observation for deviation from the anticipated normal movement/swimming behavior. […] After a 15 minute observation period, the larvae were treated with PTZ to a final concentration of 5 mM, and the number of seizures per larva at each concentration quantified for 15 minutes following PTZ treatment. The DanioVision platform (Noldus) was used to perform the animal behavioral recoding and analysis.

[2] = Solubility in water noted when preparing behavioral test concentrations; assay type: physicochemical
Procedure: as §1

animal models = conditions: previously reported; cited from earlier work
dopamine levels = conditions: mice, literature; cited from earlier work
[3] = tested on: kainic-acid induced seizure model; conditions: mice, shown previously; cited from earlier work
PTZ-larvae = test: Calcium fluctuation traces and T-score BAM of PTZ-treated larval brains; assay type: in vivo, zebrafish; conditions: 5 mM PTZ; 4 hour treatment at 10 μM
From the text: With reference to FIGS. 39C to 39E, Such pharmacological effects could also be observed in the diametrically opposed BAMS from zebrafish treated in the same manner. NNC-711 is thought to principally act through the inhibition of GABA uptake from the synaptic cleft and glia via inhibition of SLC6A1 (solute carrier family 6 member 1; (GAT1)) leading to increased GABA-ergic neurotransmission.

[4] = tested on: rat models of induced epilepsy; conditions: literature; cited from earlier work

Nc1nnc(-c2cccc(Cl)c2Cl)c(N)n1 [lamotrigine, Lamotrigine]
change in brain neural activity (T-score BAM pattern) (zebrafish brain): inhibition of activity across almost the entire brain

OCCCCC#Cc1cncc(OC[C@@H]2CCN2)c1 [Sazetidine]
seizure count over 15 minutes after PTZ [1]: hit compounds

NC(=O)CCC/N=C(\c1ccc(Cl)cc1)c1cc(F)ccc1O [progabide, Progabide]
change in brain neural activity (T-score BAM pattern) (zebrafish brain): inhibition of activity across almost the entire brain

CN1CCc2c(c3ccccc3n2Cc2ccc(C(=O)NO)cc2)C1 [Tubastatin A]
concentration at which seizures were reduced [1]: 500 µM | seizure count over 15 minutes after PTZ [1]: hit compounds | seizure count over 15 minutes after PTZ ([1]; listed as Tubastatin-A): reduced seizure count

COc1ccc(CNC(=O)Nc2ncc([N+](=O)[O-])s2)cc1 [AR-A014418]
solubility ([2]; water / fish water, 1% DMSO): highly insoluble in water

N#Cc1ccccc1-c1cc(-c2ccccn2)cn(-c2ccccc2)c1=O [perampanel, Perampanel]
change in brain neural activity (T-score BAM pattern) (zebrafish brain): inhibition of activity across almost the entire brain

NC(=O)N1c2ccccc2CC(=O)c2ccccc21 [oxcarbazepine]
change in brain neural activity (T-score BAM pattern) (zebrafish brain): inhibition of activity across almost the entire brain

COc1cccc([C@H](O)C2CCN(CCc3ccc(F)cc3)CC2)c1OC [volinanserin]
seizure count over 15 minutes after PTZ [1]: reduced seizures | seizure count over 15 minutes after PTZ ([1]; listed as Volinanerin): hit compounds | solubility [2]: highly insoluble in water

Oc1noc2c1CCNC2 [Gaboxadol]
anti-epileptic activity in animal models (animal models): anti-epileptic activity

CCC1(C)CC(=O)NC1=O (centres unmarked) [ethosuximide, Ethosuximide]
change in brain neural activity (T-score BAM pattern) (zebrafish brain): inhibition of activity across almost the entire brain

NC(=O)N1c2ccccc2C=Cc2ccccc21 [carbamazepine, Carbamazepine]
change in brain neural activity (T-score BAM pattern) (zebrafish brain): inhibition of activity across almost the entire brain

Cc1ncc(CSSCc2cnc(C)c(O)c2CO)c(CO)c1O [Pyrithioxine]
change in brain neural activity (T-score BAM pattern) (zebrafish brain): increased activity brain-wide | change of action potential firing rate in selected neuronal cells from a zebrafish brain (zebrafish brain; FIG. 9, after drug treatment): excitation

OC(CNc1ccccc1)Cn1c2ccc(Br)cc2c2cc(Br)ccc21 (centres unmarked) [P7C3]
solubility ([2]; water / fish water, 1% DMSO): highly insoluble in water

Cl.O=C(O)C1CCCN(CCC=C(c2ccccc2)c2ccccc2)C1 (centres unmarked) [SKF89976A, SKF 89976A]
anti-epileptic activity in animal models (animal models): anti-epileptic activity

CC[C@@H](C(N)=O)N1CCCC1=O [levetiracetam, Levetiracetam]
change in brain neural activity (T-score BAM pattern) (zebrafish brain): inhibition of activity across almost the entire brain

COc1ccc2cc3[n+](cc2c1OC)CCc1cc2c(cc1-3)OCO2 [berberine, Berberine]
effect on dopamine levels (dopamine levels): increase dopamine levels

CC1=NN=C(c2ccc(N)cc2)c2cc3c(cc2C1)OCO3 [GYKI-52466]
seizure count over 15 minutes after PTZ [1]: confirmed | seizure count over 15 minutes after PTZ ([1]; listed as GYKI 54266): hit compounds | anticonvulsant activity in kainic-acid induced seizure model [3]: anticonvulsant activity

CNC(=O)[C@@H](Cc1ccccc1)N(C)C(=O)[C@@H](Cc1ccc2ccccc2c1)N(C)C(=O)/C=C/CC(C)(C)N [Tabimorelin]
seizure count over 15 minutes after PTZ [1]: hit compounds

O=c1cc(-c2ccccc2)oc2c(O)c(O)ccc12 [7,8-dihydroxyflavone]
solubility [2]: highly insoluble in water

COc1ccc(/C=C/c2cc(OC)cc(=O)o2)cc1 [Yangonin]
seizure count over 15 minutes after PTZ [1]: hit compounds | solubility [2]: highly insoluble in water

O=C(O)C1=CCCN(CCON=C(c2ccccc2)c2ccccc2)C1 [NNC-711, NNC 711]
concentration at which seizures were reduced [1]: 25 µM | seizure activity in larval brain (calcium fluctuation, T-score BAM) (PTZ-larvae): reduction of seizure activity | anti-epileptic activity in animal models (animal models): anti-epileptic activity | anticonvulsant efficacy in rat models of induced epilepsy [4]: anticonvulsant efficacy

Source: US11490856B2, “Method and a system for analyzing neuropharmacology of a drug” (City University of Hong Kong, priority 2018, dated 2022)
